We go through six compounds from patent publication US20250188092A1, “RIFAMYCIN ANALOGS” (THE REGENTS OF THE UNIVERSITY OF MICHIGAN, priority 2021, published 2025).

Each structure is given as a SMILES string. Converted amounts (≈) assume the structure as drawn. Read-outs that look alike come from different tables or passages of the source.

For one data set, the system named is M. tuberculosis Erdman. The experiment in a line: Mouse acute efficacy study (lung CFU). Type of data set: in vivo, BALB/c mice. The following applies: 15 mg/kg QD, day 21.
The conditions of data set [1]: mouse, in vivo.
Another data set relates to MTB H37Rv ATCC 27294. Description: MIC, microplate Alamar Blue assay (MABA). The following applies: for MIC90: MTB H37Rv ATCC 27294, microplate Alamar Blue assay, lowest concentration giving ≥90% reduction in fluorescence. Type of data set: cell-based, Mycobacterium tuberculosis.
For another data set, the system named is VERO cells (ATCC CRL-81). Description: Vero cell toxicity. Type of data set: cell-based. The following applies: 72 hours exposure. The procedure: Cytotoxicity for a mammalian cell line was determined by exposing VERO cells (ATCC CRL-81) to serial dilutions of test compounds for 72 hours, followed by addition of resazurin and measurement of fluorescence after 4 hours incubation (Choules, et al., Antimnicrob. Agents Chemother. 2019, 63, e02204-02218).

For the next data set, the system named is M. tuberculosis H37Rv. The experiment in a line: Minimum bactericidal concentration (MBC, CFU Assay). It is filed as cell-based, Mycobacterium tuberculosis.
In data set [2] the target is T1, human pregnane X receptor (hPXR) (Homo sapiens, UniProt O75469).
T1 sequence (O75469 1-434): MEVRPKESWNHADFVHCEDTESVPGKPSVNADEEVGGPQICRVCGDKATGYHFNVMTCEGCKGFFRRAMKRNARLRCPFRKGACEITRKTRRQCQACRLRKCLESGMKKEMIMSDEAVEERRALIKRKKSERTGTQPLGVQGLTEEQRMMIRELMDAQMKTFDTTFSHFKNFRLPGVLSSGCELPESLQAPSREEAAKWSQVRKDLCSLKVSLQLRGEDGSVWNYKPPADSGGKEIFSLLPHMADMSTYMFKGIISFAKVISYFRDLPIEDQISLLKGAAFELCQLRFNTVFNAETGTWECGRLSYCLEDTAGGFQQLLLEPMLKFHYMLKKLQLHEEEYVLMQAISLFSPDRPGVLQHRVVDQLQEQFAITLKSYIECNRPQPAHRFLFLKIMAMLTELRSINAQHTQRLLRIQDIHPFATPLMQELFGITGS

Another data set has as its target T2, WT MTB RNAP (Mycobacterium tuberculosis, UniProt P9WGY9).
T2 construct: made in house; host or cells: E. coli BL21(DE3)
Type of data set: biochemical. The note with it: lower limit of detection ~5 nM.

The test system of the next data set is CYP 3A4. The following applies: human, 24 h.
For another data set, the target named is hPXR (Homo sapiens, UniProt O75469). The following applies: cited from earlier work.
The test system of another data set is MTB H37Rv. The following applies: cited from earlier work.
The conditions of data set [3]: human trials; cited from earlier work.

T2 sequence (P9WGI1 whole entry): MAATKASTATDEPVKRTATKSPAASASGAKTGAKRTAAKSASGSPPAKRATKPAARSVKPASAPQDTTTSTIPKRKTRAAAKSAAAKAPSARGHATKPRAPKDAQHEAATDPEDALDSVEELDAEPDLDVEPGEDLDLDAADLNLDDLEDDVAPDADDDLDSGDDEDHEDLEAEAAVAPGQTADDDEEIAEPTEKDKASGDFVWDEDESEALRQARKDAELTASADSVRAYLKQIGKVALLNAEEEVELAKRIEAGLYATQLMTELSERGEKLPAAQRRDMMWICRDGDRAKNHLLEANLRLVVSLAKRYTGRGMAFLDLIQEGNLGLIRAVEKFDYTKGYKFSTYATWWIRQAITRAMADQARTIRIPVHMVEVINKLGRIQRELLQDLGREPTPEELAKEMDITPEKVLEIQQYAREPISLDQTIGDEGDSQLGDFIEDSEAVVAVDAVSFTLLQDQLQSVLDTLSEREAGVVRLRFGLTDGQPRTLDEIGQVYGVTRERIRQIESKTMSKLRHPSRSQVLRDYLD
T2 sequence (P9WGY7 whole entry, further chain): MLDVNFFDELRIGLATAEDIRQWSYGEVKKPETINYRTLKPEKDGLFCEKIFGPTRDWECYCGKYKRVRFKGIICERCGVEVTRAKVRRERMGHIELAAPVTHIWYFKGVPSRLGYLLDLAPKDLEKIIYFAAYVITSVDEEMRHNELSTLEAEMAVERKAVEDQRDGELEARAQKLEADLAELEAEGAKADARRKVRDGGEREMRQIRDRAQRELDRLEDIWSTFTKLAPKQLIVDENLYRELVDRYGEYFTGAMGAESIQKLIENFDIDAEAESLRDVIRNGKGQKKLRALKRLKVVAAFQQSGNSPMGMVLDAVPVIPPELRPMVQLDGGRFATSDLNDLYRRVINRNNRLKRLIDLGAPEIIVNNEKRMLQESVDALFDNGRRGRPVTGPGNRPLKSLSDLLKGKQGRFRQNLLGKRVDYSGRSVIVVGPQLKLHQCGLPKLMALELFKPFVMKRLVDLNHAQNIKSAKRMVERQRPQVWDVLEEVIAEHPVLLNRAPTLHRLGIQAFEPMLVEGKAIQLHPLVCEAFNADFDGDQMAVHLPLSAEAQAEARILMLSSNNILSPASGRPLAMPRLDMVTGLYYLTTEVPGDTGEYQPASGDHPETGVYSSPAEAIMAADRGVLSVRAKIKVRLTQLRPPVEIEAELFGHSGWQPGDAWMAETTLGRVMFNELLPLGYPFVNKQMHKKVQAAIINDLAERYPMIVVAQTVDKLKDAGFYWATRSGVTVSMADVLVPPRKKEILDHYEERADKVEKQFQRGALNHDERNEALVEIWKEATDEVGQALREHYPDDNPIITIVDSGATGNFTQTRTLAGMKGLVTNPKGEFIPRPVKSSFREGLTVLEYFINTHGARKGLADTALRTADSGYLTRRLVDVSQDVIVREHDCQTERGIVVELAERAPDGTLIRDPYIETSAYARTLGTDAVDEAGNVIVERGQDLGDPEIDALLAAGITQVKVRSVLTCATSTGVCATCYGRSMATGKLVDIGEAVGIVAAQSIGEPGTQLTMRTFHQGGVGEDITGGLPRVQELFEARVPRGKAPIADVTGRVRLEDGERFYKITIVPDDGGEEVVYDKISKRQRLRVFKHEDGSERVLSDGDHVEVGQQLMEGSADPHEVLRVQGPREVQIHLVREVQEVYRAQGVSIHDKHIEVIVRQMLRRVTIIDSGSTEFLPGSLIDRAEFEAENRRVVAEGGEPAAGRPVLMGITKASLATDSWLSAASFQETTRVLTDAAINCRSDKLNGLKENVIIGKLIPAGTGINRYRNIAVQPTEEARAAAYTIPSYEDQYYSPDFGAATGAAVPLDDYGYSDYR
T2 sequence (P9WGY5 whole entry, further chain): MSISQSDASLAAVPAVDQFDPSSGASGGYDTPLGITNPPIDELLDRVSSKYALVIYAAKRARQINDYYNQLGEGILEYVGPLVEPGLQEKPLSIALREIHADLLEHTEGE
T2 sequence (P9WGZ1 whole entry, further chain): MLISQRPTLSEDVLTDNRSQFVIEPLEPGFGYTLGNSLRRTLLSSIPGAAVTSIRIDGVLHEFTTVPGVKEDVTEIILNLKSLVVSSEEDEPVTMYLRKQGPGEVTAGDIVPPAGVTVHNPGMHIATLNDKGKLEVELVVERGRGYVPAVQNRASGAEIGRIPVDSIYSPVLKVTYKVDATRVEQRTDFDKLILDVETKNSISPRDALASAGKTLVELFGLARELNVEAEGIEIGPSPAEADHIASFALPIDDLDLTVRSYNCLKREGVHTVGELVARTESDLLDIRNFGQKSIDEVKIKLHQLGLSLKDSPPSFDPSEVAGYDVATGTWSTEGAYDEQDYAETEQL
T2 sequence (P9WGY9 whole entry): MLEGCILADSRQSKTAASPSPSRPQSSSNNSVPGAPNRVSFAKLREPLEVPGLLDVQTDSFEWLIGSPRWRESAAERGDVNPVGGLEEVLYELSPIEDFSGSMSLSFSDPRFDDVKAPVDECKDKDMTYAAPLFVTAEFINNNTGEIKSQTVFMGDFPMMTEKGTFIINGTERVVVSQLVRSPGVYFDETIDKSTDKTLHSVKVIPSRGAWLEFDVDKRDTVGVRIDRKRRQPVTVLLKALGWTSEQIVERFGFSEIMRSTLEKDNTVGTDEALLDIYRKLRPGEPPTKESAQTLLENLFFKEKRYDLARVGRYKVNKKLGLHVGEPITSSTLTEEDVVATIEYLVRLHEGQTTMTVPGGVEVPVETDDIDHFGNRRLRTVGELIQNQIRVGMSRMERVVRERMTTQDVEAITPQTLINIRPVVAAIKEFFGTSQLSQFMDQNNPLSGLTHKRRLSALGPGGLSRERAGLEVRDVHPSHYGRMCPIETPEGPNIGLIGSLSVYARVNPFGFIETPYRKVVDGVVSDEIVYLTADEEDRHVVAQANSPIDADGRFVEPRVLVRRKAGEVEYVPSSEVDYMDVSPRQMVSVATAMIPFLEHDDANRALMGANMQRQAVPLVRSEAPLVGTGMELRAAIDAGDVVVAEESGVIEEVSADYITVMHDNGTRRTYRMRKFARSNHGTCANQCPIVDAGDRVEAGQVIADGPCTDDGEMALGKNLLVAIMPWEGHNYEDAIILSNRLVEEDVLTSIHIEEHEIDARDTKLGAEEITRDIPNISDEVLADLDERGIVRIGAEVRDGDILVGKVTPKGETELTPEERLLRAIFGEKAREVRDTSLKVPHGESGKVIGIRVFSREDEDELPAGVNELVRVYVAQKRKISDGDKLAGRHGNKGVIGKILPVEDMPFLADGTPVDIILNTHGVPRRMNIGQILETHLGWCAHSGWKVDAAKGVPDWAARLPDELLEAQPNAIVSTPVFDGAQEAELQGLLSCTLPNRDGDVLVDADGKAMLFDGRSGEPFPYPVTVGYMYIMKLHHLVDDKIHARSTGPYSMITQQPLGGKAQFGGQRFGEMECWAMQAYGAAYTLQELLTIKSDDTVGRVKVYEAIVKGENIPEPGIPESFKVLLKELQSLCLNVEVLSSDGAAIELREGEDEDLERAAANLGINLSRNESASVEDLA

On to `CO[C@H]1/C=C/O[C@@]2(C)Oc3c(C)c(O)c4c(O)c(c(/C=N/N5CCN(C)CC5)c(O)c4c3C2=O)NC(=O)/C(C)=C\C=C\[C@H](C)[C@H](O)[C@@H](C)[C@@H](O)[C@@H](C)[C@H](OC(C)=O)[C@@H]1C` [RMP, rifampin, reference compound], for which the CFU/Mouse was 857 with M. tuberculosis Erdman (CMC-Tween vehicle) and 8,443 in the data set with M. tuberculosis Erdman (PEG-water vehicle). Further, the “adverse effects noted in the mice” value in data set [1] is “no adverse effects”. In the data set with MTB H37Rv ATCC 27294 (MABA MIC90 relative to rifampin (RMP = 1)), the “MIC90 MABA Rel to RMP” value was found to be 1. In addition, in the data set with MTB H37Rv ATCC 27294 (Mycobacterium tuberculosis), the MIC90 is 0.027 µM (≈ 0.0222 µg/mL). The compound also had an IC50 in the data set on VERO cells (ATCC CRL-81) (Chlorocebus sabaeus, Vero) of over 100000 nM. Besides, the “MBC99 Day 7 (CFU Assay) MBC99 Rel to RMP” value in the data set with M. tuberculosis H37Rv (CFU Assay MBC99 relative to rifampin (RMP = 1)) is 1. In the data set on M. tuberculosis H37Rv (Mycobacterium tuberculosis, 168 h, Day 7, M. tuberculosis H37Rv, ≥99% reduction in colony forming units, read-out: MBC99 Day 7 (CFU Assay) MBC99), the MBC was 0.13 µM (≈ 0.107 µg/mL).

Turning to `CO[C@H]1/C=C/O[C@@]2(C)Oc3c(C)c(O)c4c(=O)c(c5oc6cc(N7CCN(C(=O)c8cccc(-c9ccccn9)c8)CC7)cc(OCc7ccc(CN8CCOCC8)cc7)c6nc-5c4c3C2=O)NC(=O)/C(C)=C\C=C\[C@H](C)[C@H](O)[C@@H](C)[C@@H](O)[C@@H](C)[C@H](OC(C)=O)[C@@H]1C` [Compound 17r, (7S,9E,11S,12R,13S,14R,15R,16R,17S,18S,19E,21Z)-2,15,17-trihydroxy-11-methoxy-3,7,12,14,16,18,22-heptamethyl-32-{[4-(morpholin-4-ylmethyl)phenyl]methoxy}-6,23,37-trioxo-30-(4-{[3-(pyridin-2-yl)phenyl]carbonyl}piperazin-1-yl)-8,27,38-trioxa-24,34-diazahexacyclo[23.11.1.1^4,7.0^5,36.0^26,35.0^28,33]octatriaconta-1,3,5(36)9,19,21,25,28,30,32,34-undecaen-13-yl acetate], in the data set on DPX2 cells, the “DPX2 Viability @ 6.25 μM” value came out at 105% and the “DPX2 Viability @ 25 μM” value worked out at 94%. In the data set on MTB H37Rv ATCC 27294, the “MIC90 MABA Rel to RMP” value was 0.46 and the MIC90 worked out at 0.023 µM. For the same compound, the IC50 in the data set on VERO cells (ATCC CRL-81) was over 10000 nM. In [2], the “hPXR Fold Act. (lucif) @ 6.25 μM” value is on record as 1 fold and the “hPXR Fold Act. (lucif) @ 25 μM” value was found to be 1 fold. The IC50 at WT MTB RNAP amounted to 9.8 nM.

`CO[C@H]1/C=C/O[C@@]2(C)Oc3c(C)c(O)c4c(=O)c(c5oc6cc(N7CCC(CC(=O)O)CC7)cc(N7CCC(CC(=O)O)CC7)c6nc-5c4c3C2=O)NC(=O)/C(C)=C\C=C\[C@H](C)[C@H](O)[C@@H](C)[C@@H](O)[C@@H](C)[C@H](OC(C)=O)[C@@H]1C` [Compound 17v, 2-{1-[(7S,9E,11S,12R,13S,14R,15R,16R,17S,18S,19E,21Z)-13-(acetyloxy)-32-[4-(carboxymethyl)piperidin-1-yl]-2,15,17-trihydroxy-11-methoxy-3,7,12,14,16,18,22-heptamethyl-6,23,37-trioxo-8,27,38-trioxa-24,34-diazahexacyclo-[23.11.1.1^4,7.0^5,36.0^26,35.0^28,33]octatriaconta-1,3,5(36)9,19,21,25,28,30,32,34-undecaen-30-yl]piperidin-4-yl)acetic acid]: in the data set on DPX2 cells, the “DPX2 Viability @ 6.25 μM” value amounted to 110% and the “DPX2 Viability @ 25 μM” value is reported as 100%. For the same compound, the IC50 in the data set on VERO cells (ATCC CRL-81) was over 10000 nM. In data set [2], the “hPXR Fold Act. (lucif) @ 6.25 μM” value came to 1.2 fold and the “hPXR Fold Act. (lucif) @ 25 μM” value amounted to 1.6 fold. Moreover, half-maximal inhibition at WT MTB RNAP (IC50) was put at 27 nM.

Turning to `CO[C@H]1/C=C/O[C@@]2(C)Oc3c(C)c(O)c4c(=O)c(c5oc6cc(N7CCC(CC(=O)O)CC7)cc(OCc7ccc(CN8CCOCC8)cc7)c6nc-5c4c3C2=O)NC(=O)/C(C)=C\C=C\[C@H](C)[C@H](O)[C@@H](C)[C@@H](O)[C@@H](C)[C@H](OC(C)=O)[C@@H]1C` [Compound 17l, 2-{1-[(7S,9E,11S,12R,13S,14R,15R,16R,17S,18S,19E,21Z)-13-(acetyloxy)-2,15,17-trihydroxy-11-methoxy-3,7,12,14,16,18,22-heptamethyl-32-{[4-(morpholin-4-ylmethyl)phenyl]methoxy}-6,23,37-trioxo-8,27,38-trioxa-24,34-diazahexacyclo-[23.11.1.1^4,7.0^5,36.0^26,35.0^28,33]octatriaconta-1,3,5(36)9,19,21,25,28,30,32,34-undecaen-30-yl]piperidin-4-yl)acetic acid], in the data set on DPX2 cells, the “DPX2 Viability @ 6.25 μM” value is 107% and the “DPX2 Viability @ 25 μM” value is reported as 102%. For the same compound, in the data set with MTB H37Rv ATCC 27294, the “MIC90 MABA Rel to RMP” value is 7.0 and the MIC90 amounted to 0.187 µM (≈ 0.212 µg/mL). In addition, the IC50 with VERO cells (ATCC CRL-81) was over 10000 nM. Moreover, in data set [2], the “hPXR Fold Act. (lucif) @ 6.25 μM” value stood at 1.1 fold and the “hPXR Fold Act. (lucif) @ 25 μM” value worked out at 1.9 fold. Also, on WT MTB RNAP, the half-maximal inhibitory concentration (IC50) turned out to be 13 nM.

As to `CO[C@H]1/C=C/O[C@@]2(C)Oc3c(C)c(O)c4c(O)c(c(/C=N/N5CCN(C6CCCC6)CC5)c(O)c4c3C2=O)NC(=O)/C(C)=C\C=C\[C@H](C)[C@H](O)[C@@H](C)[C@@H](O)[C@@H](C)[C@H](OC(C)=O)[C@@H]1C` [RFP, rifapentine, reference compound], in the data set on DPX2 cells (human, 24 h, 6.25 μM), the “DPX2 Viability @ 6.25 μM” value amounted to 104%. Moreover, the “DPX2 Viability @ 25 μM” value in the data set with DPX2 cells (human, 24 h, 25 μM) amounted to 105%. Further, the “hPXR Fold Act. (CYP 3A4) @ 6.25 μM” value with CYP 3A4 (6.25 μM) stood at 20.3 fold. In addition, the “hPXR Fold Act. (CYP 3A4) @ 25 μM” value in the data set on CYP 3A4 (25 μM) is listed as 20.5 fold.

As for `CO[C@H]1/C=C/O[C@@]2(C)Oc3c(C)c(O)c4c(=O)c(c5oc6cc(N7CCN(CC(C)C)CC7)cc(O)c6nc-5c4c3C2=O)NC(=O)/C(C)=C\C=C\[C@H](C)[C@H](O)[C@@H](C)[C@@H](O)[C@@H](C)[C@H](OC(C)=O)[C@@H]1C` [RLZ, rifalazil, reference compound], in the data set with DPX2 cells (6.25 μM, 24 h), the “DPX2 Viability @ 6.25 μM” value was found to be 108%. For the same compound, the “loss of cell viability” value with DPX2 cells (at 100 pt) was about 2 fold. For the same compound, the “DPX2 Viability @ 25 μM” value with DPX2 cells (human) turned out to be 96%. The “MIC90 MABA Rel to RMP” value against MTB H37Rv ATCC 27294 is given as 0.04. This compound had an MIC90 with MTB H37Rv ATCC 27294 (Mycobacterium tuberculosis) of 0.0011 µM (≈ 0.00104 µg/mL). Besides, in data set [2], the “activation of hPXR” value was “no activation”. In addition, the hPXR activation entry on hPXR was “does not activate”. In the data set on MTB H37Rv, the “more potent than RMP against MTB H37Rv in vitro” value was 29 fold. In addition, the half-life in data set [3] is 60 to 100 h.
